Tests used:
[1] = tested on: neuroendocrine tumor (NET); assay: Progression-free survival of PPQ-negative subjects after PRRT or PRRT plus chemotherapy; format: in vivo, human; conditions: PPQ predicted non responders; standard 4 cycle PRRT
Excerpt: Clinical outcomes of patients that were identified by the PPQ to be a predicted non-responder to PRRT therapy were further analyzed. […] Thus, the PPQ can be used to identify patients that require additional agents (e.g. immune-related treatments or chemotherapy) to be used with PRRT and thereby optimize outcomes.

midgut NETs = midgut NETs progressive on standard octreotide LAR treatment; cited from earlier work

In the case of C[C@@H](O)[C@H](NC(=O)[C@@H]1CSSC[C@H](NC(=O)[C@@H](Cc2ccccc2)NC(=O)CN2CCN(CC(=O)[O-])CCN(CC(=O)[O-])CCN(CC(=O)[O-])CC2)C(=O)N[C@@H](Cc2ccc(O)cc2)C(=O)N[C@H](Cc2c[nH]c3ccccc23)C(=O)N[C@@H](CCCCN)C(=O)N[C@@H]([C@@H](C)O)C(=O)N1)C(=O)O.[177Lu+3] [Lutathera, ^177Lu-DOTA-Tyr^3-Thr^8-octreotide], the “median PFS” value [1] is listed as 9 months and the “efficacy versus high-dose octreotide” value (midgut NETs) is listed as “more effective than high-dose octreotide somatostatin analogs”.
